Tests used:
Format in all cases: physicochemical
[1] = Dynamic Vapor Sorption (DVS); details: 0-90% RH range, 25° C.
Method: DVS data were obtained using a SMS DVS Intrinsic moisture sorption analyzer, controlled by DVS Intrinsic Control software. The sample temperature was maintained at 25° C. by the instrument controls. The humidity was controlled by mixing streams of dry and wet nitrogen, with a total flow rate of 200 ml/min. The relative humidity was measured by a calibrated Rotronic probe (dynamic range of 1.0-100% RH), located near the sample. The weight change, (mass relaxation) of the sample as a function of % RH was constantly monitored by a microbalance (accuracy ±0.005 mg).
Typically, 5-30 mg of sample was placed in a tared mesh stainless steel basket under ambient conditions. The sample was loaded and unloaded at 40% RH and 25° C. (typical room conditions). A moisture sorption isotherm was performed as outlined below (2 scans per complete cycle). The standard isotherm was performed at 25° C. at 10% RH intervals over a 0-90% RH range. Typically, a double cycle (4 scans) was carried out. Data analysis was carried out within Microsoft Excel using the DVS Analysis Suite.

[2] = Stability study: XRPD after storage for 7 days
Method: Polymorphic Form I of (R)—N-(5-(5-isopropyl-1,2,4-oxadiazol-3-yl)-2,3-dihydro-1H-inden-1-yl)-2-methyl-2H-tetrazole-5-carboxamide was analyzed by XRPD, DSC, TGA, and DVS. […] As shown in the TGA graph, no weight loss prior to degradation, which starts at about 230° C., was observed. […] Chemical stability study of Form I was also performed. XRPD patterns were measured after storage of samples of Form I for 7 days at 40° C./75% RH and 25° C./97% RH.
Polymorphic Form I of (R)—N-(5-(5-isopropyl-1,2,4-oxadiazol-3-yl)-2,3-dihydro-1H-inden-1-yl)-2-methyl-2H-tetrazole-5-carboxamide (500 mg) was suspended in n-propyl acetate (50 vol) and stirred at 50° C. After 10 minutes, a clear solution was obtained. The solvent was removed under reduced pressure (100 ml round-bottom flask). The solid obtained was analyzed by XRPD and determined as a mixture of Form I and Form II. The solid was suspended in n-propyl acetate (40 vol) and stirred at 50° C. After 10 minutes, a clear solution was obtained. The solvent was removed under reduced pressure in a larger flask (250 ml round-bottom flask). The resulting solid was analyzed by XRPD, DSC, TGA, and GVS and determined as Form II. […] As shown in the DSC graph (sample heated at 10° C./min), an endotherm onset at about 133° C., an exotherm onset at about 135° C., and an endotherm onset at about 152° C. were observed. As shown in the TGA graph, a weight loss of about 1.1% between about 83° C. and about 160° C. prior to degradation was observed. […] Chemical stability study of Form II was also performed. XRPD patterns were measured after storage of samples of Form II for 7 days at 40° C./75% RH and 25° C./97% RH.

[3] = Polymorph screening (isothermal maturation, liquid assisted grinding, temperature cycling maturation)
Method: Polymorphic Form I of (R)—N-(5-(5-isopropyl-1,2,4-oxadiazol-3-yl)-2,3-dihydro-1H-inden-1-yl)-2-methyl-2H-tetrazole-5-carboxamide (ca. 2 g) was suspended in MeCN:H2O (90 vol) and stirred at 50° C. for 40 minutes. The clear solution was filtered and flash frozen in a dry ice/acetone bath and placed for lyophilisation. The solid isolated was analyzed by XRPD and determined to be poorly crystalline Form I.
Poorly crystalline Form I (ca. 15 mg) was dispensed into HPLC vials. Solvent was added (10 vol) and the samples were shaken/stirred at 50° C. After 6 days, suspensions were filtered through a Millipore filter plate and dried under suction for 30 minutes prior to XPRD analysis.
Polymorphic Form I of (R)—N-(5-(5-isopropyl-1,2,4-oxadiazol-3-yl)-2,3-dihydro-1H-inden-1-yl)-2-methyl-2H-tetrazole-5-carboxamide was dispensed into HPLC vials and two stainless steel grinding balls (3 mm diameter) added. Solvent was added (10 μl) and the samples were subjected to grinding on a Fritsch planetary mill (500 rpm, 2 hour duration). Solids obtained post grinding were analyzed by XRPD. As shown below in Table 5, Form I was obtained from all of the experiments.
Polymorphic Form I of (R)—N-(5-(5-isopropyl-1,2,4-oxadiazol-3-yl)-2,3-dihydro-1H-inden-1-yl)-2-methyl-2H-tetrazole-5-carboxamide (20 mg) was dispensed into HPLC vials. The selected solvent was added (5 vol) to each sample then placed for maturation (RT/50° C., cycled with 4 hours at each temperature). After 2 days, the samples were removed from the maturation chamber. Suspensions were filtered through a Millipore plate and dried under suction for 20 minutes prior to XRPD analysis. Solutions obtained were treated with increasing aliquots of anti-solvent until a suspension was obtained or maximum of 5 eq. had been added. Samples were shaken at 25° C. for 30 minutes. Suspensions obtained after shaking were filtered through a Millipore plate and dried under suction for 20 minutes prior to XRPD analysis. Solutions and samples containing a small amount of solid were shaken at 25° C. overnight with any solutions obtained allowed to evaporate at RT. […]

[4] = Competitive slurry experiments between Form I and Form II
Method: Competitive slurry experiments between Form I and Form II in different solvents were conducted. Form I was suspended in the selected solvents at both 50° C. and 5° C. and stirred for a minimum of 1 hour before filtration to create a saturated solution. Form I (ca. 10 mg) and Form II (ca. 10 mg) were combined in a HPLC vial. Each sample was treated with 0.5 ml of the selected saturated solution. The samples were stirred at the selected temperature for 6 days. Solids obtained were filtered and dried under suction for a few minutes prior to characterization. Samples were slightly wet during XRPD analysis.

moisture uptake as determined by DVS [1] [% w/w]	changes in XRPD patterns after storage ([2]; 7 days at 25° C./97% RH)	changes in XRPD patterns after storage ([2]; 7 days at 40° C./75% RH)	relative stability of form ([3]; isothermal maturation, 50° C., 6 days, various solvents)	relative stability of form ([3]; liquid assisted grinding, 500 rpm, 2 hour, various solvents)	relative stability of form ([3]; temperature cycling maturation RT/50° C., 2 days, and anti-solvent screen)	XRPD analysis (form after slurry) ([4]; Sample 01, MeCN, 5 °C, 6 days)	XRPD analysis (form after slurry) ([4]; Sample 02, n-propyl acetate, 5 °C, 6 days)	XRPD analysis (form after slurry) ([4]; Sample 03, MEK, 5 °C, 6 days)	XRPD analysis (form after slurry) ([4]; Sample 04, H2O:MeCN (25:75), 5 °C, 6 days)	XRPD analysis (form after slurry) ([4]; Sample 05, H2O:MeCN (75:25), 5 °C, 6 days)	XRPD analysis (form after slurry) ([4]; Sample 06, MeCN, 50 °C, 6 days)	XRPD analysis (form after slurry) ([4]; Sample 07, n-propyl acetate, 50 °C, 6 days)	XRPD analysis (form after slurry) ([4]; Sample 09*, H2O:MeCN (25:75), 50 °C, 6 days, also treated with neat solvent)	XRPD analysis (form after slurry) ([4]; Sample 10, H2O:MeCN (75:25), 50 °C, 6 days)	XRPD analysis (form after slurry) ([4]; Sample 11, MEK, 50 °C, 6 days (repeat of 08))	XRPD analysis (form after slurry) ([4]; Sample 12, H2O:MeCN (25:75), 50 °C, 6 days (repeat of 09))	Compound
0.36	No significant changes	No significant changes	most stable form	most stable form	most stable form												CC(C)c1nc(-c2ccc3c(c2)CC[C@H]3NC(=O)c2nnn(C)n2)no1 [Form I, (R)—N-(5-(5-isopropyl-1,2,4-oxadiazol-3-yl)-2,3-dihydro-1H-inden-1-yl)-2-methyl-2H-tetrazole-5-carboxamide]
0.24	No significant changes	No significant changes															CC(C)c1nc(-c2ccc3c(c2)CC[C@H]3NC(=O)c2nnn(C)n2)no1 [Form II, (R)—N-(5-(5-isopropyl-1,2,4-oxadiazol-3-yl)-2,3-dihydro-1H-inden-1-yl)-2-methyl-2H-tetrazole-5-carboxamide]
						Form 1	Form 1	Form 1	Form 1	Form 1	Form I	Form I	Form I	Form I	Form I	Form I	CC(C)c1nc(-c2ccc3c(c2)CC[C@H]3NC(=O)c2nnn(C)n2)no1 [Form I and Form II, (R)—N-(5-(5-isopropyl-1,2,4-oxadiazol-3-yl)-2,3-dihydro-1H-inden-1-yl)-2-methyl-2H-tetrazole-5-carboxamide]
